Source: patent US6949571B2, “1,2-dihydropyridine compounds, process for preparation of the same and use thereof” (Eisai Co., Ltd., priority 2000, dated 2005)
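Note: primary rat embryonic cortical neurons grown on an astrocyte layer in 96-well plates, used after at least 8 to 10 days in culture, Fura2-AM fluorescence ratio at 340/380 nm excitation.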

What follows are compounds tested on AMPA receptor. Details: Table 1; primary culture of rat embryo cerebral cortex nerve cells, 2 μM AMPA, 1 μM MK-801.
Work on `N#Cc1ccccc1-c1cc(-c2ccccc2[N+](=O)[O-])cn(-c2ccccc2)c1=O` [Example 1, 3-(2-Cyanophenyl)-5-(2-nitrophenyl)-1-phenyl-1,2-dihydropyridin-2-one] yielded an IC50 of 800 nM. `N#Cc1ccccc1-c1cc(-c2ccccc2N)cn(-c2ccccc2)c1=O` [Example 2, 5-(2-Aminophenyl)-3-(2-cyanophenyl)-1-phenyl-1,2-dihydropyridin-2-one] was tested, and the IC50 was 1800 nM. `CS(=O)(=O)Nc1ccccc1-c1cc(-c2ccccc2C#N)c(=O)n(-c2ccccc2)c1` [Example 3, 3-(2-Cyanophenyl)-5-(2-methylsulfonylaminophenyl)-1-phenyl-1,2-dihydropyridin-2-one] was tested, and the IC50 was 300 nM. `COc1ncc(-c2ccccn2)cc1-c1ccccc1C#N` [Example 5, 3-(2-Cyanophenyl)-5-(2-pyridyl)-2-methoxypyridine] was tested, and the IC50 was 600 nM. `N#Cc1ccccc1-c1cc(-c2ccccn2)c[nH]c1=O` [Example 6, 3-(2-Cyanophenyl)-5-(2-pyridyl)-2(1H)-pyridone] was tested, and the IC50 was 9300 nM. Compound `N#Cc1ccccc1-c1cc(-c2ccccn2)cn(-c2cccc([N+](=O)[O-])c2)c1=O` [Example 8, 3-(2-Cyanophenyl)-5-(2-pyridyl)-1-(3-nitrophenyl)-1,2-dihydropyridin-2-one] has an IC50 of 100 nM. `CS(=O)(=O)Nc1cccc(-n2cc(-c3ccccn3)cc(-c3ccccc3C#N)c2=O)c1` [Example 10, 3-(2-Cyanophenyl)-5-(2-pyridyl)-1-(3-methylsulfonylaminophenyl)-1,2-dihydropyridin-2-one] gave an IC50 of 50 nM. With `CNc1cccc(-n2cc(-c3ccccn3)cc(-c3ccccc3C#N)c2=O)c1` [Example 11, 3-(2-Cyanophenyl)-5-(2-pyridyl)-1-(3-methylaminophenyl)-1,2-dihydropyridin-2-one] the IC50 was 60 nM. With `COCC1CN(c2cccc(-n3cc(-c4ccccn4)cc(-c4ccccc4C#N)c3=O)c2)C(=O)O1` (stereo not drawn) [Example 13, 3-(2-Cyanophenyl)-5-(2-pyridyl)-1-[3-(5-methoxymethyl-2-oxazolidinon-3-yl)-phenyl]-1,2-dihydropyridin-2-one] the IC50 was 200 nM. `COC(=O)c1cccc(-n2cc(-c3ccccn3)cc(-c3ccccc3C#N)c2=O)c1` [Example 14, 3-(2-Cyanophenyl)-5-(2-pyridyl)-1-(3-methoxycarbonylphenyl)-1,2-dihydropyridin-2-one] was tested, and the IC50 was 100 nM. `CNC(=O)c1cccc(-n2cc(-c3ccccn3)cc(-c3ccccc3C#N)c2=O)c1` [Example 15, 3-(2-Cyanophenyl)-5-(2-pyridyl)-1-(3-methylaminocarbonylphenyl)-1,2-dihydropyridin-2-one] gave an IC50 of 50 nM. With `COc1ccc(-n2cc(-c3ccccn3)cc(-c3ccccc3Cl)c2=O)cc1` [Example 17, 3-(2-Chlorophenyl)-5-(2-pyridyl)-1-(4-methoxyphenyl)-1,2-dihydropyridin-2-one] the IC50 was 700 nM. Work on `O=c1c(-c2ccccc2Cl)cc(-c2ccccn2)cn1-c1ccc(O)cc1` [Example 18, 3-(2-Chlorophenyl)-5-(2-pyridyl)-1-(4-hydroxyphenyl)-1,2-dihydropyridin-2-one] yielded an IC50 of 20 nM. With `CN(C)CCOc1ccc(-n2cc(-c3ccccn3)cc(-c3ccccc3Cl)c2=O)cc1` [Example 19, 3-(2-Chlorophenyl)-5-(2-pyridyl)-1-(4-dimethylaminoethoxyphenyl)-1,2-dihydropyridin-2-one] the IC50 was 80 nM. With `N#Cc1ccccc1-c1cc(-c2ccccn2)cn(-c2cccc(C=O)c2)c1=O` [Example 20, 3-(2-Cyanophenyl)-5-(2-pyridyl)-1-(3-formylphenyl)-1,2-dihydropyridin-2-one] the IC50 was 40 nM. Compound `N#Cc1ccccc1-c1cc(-c2ccccn2)cn(-c2cccc(CO)c2)c1=O` [Example 21, 3-(2-Cyanophenyl)-5-(2-pyridyl)-1-(3-hydroxymethylphenyl)-1,2-dihydropyridin-2-one] has an IC50 of 30 nM. `N#CCc1cccc(-n2cc(-c3ccccn3)cc(-c3ccccc3C#N)c2=O)c1` [Example 22, 3-(2-Cyanophenyl)-5-(2-pyridyl)-1-(3-cyanomethylphenyl)-1,2-dihydropyridin-2-one] was tested, and the IC50 was 60 nM. For `CC(=O)NCc1cccc(-n2cc(-c3ccccn3)cc(-c3ccccc3C#N)c2=O)c1` [Example 23, 3-(2-Cyanophenyl)-5-(2-pyridyl)-1-(3-acetylaminomethylphenyl)-1,2-dihydropyridin-2-one], the IC50 was 200 nM. `CS(=O)(=O)NCc1cccc(-n2cc(-c3ccccn3)cc(-c3ccccc3C#N)c2=O)c1` [Example 24, 3-(2-Cyanophenyl)-5-(2-pyridyl)-1-(3-methylsulfonylaminomethylphenyl)-1,2-dihydropyridin-2-one] gave an IC50 of 200 nM. `CC(=O)OCc1cccc(-n2cc(-c3ccccn3)cc(-c3ccccc3C#N)c2=O)c1` [Example 25, 3-(2-Cyanophenyl)-5-(2-pyridyl)-1-(3-acetoxymethylphenyl)-1,2-dihydropyridin-2-one] was tested, and the IC50 was 30 nM. In the case of `CSc1ccc(-n2cc(-c3ccccn3)cc(-c3ccccc3C#N)c2=O)cc1` [Example 26, 3-(2-Cyanophenyl)-5-(2-pyridyl)-1-(4-methylthiophenyl)-1,2-dihydropyridin-2-one], the IC50 is reported as 20 nM. `CS(=O)(=O)c1ccc(-n2cc(-c3ccccn3)cc(-c3ccccc3C#N)c2=O)cc1` [Example 27, 3-(2-Cyanophenyl)-5-(2-pyridyl)-1-(4-methylsulfonylphenyl)-1,2-dihydropyridin-2-one] was tested, and the IC50 was 50 nM. Compound `N#Cc1ccccc1-c1cc(-c2ccsc2C=O)cn(-c2ccccc2)c1=O` [Example 28, 3-(2-Cyanophenyl)-5-(2-formylthiophen-3-yl)-1-phenyl-1,2-dihydropyridin-2-one] has an IC50 of 200 nM. `CCN(CC)Cc1sccc1-c1cc(-c2ccccc2C#N)c(=O)n(-c2ccccc2)c1` [Example 29, 3-(2-Cyanophenyl)-5-(2-diethylaminomethylthiophen-3-yl)-1-phenyl-1,2-dihydropyridin-2-one] showed an IC50 of 100 nM. `N#Cc1ccccc1-c1cc(-c2ccsc2CO)cn(-c2ccccc2)c1=O` [Example 30, 3-(2-Cyanophenyl)-5-(2-hydroxymethylthiophen-3-yl)-1-phenyl-1,2-dihydropyridin-2-one] was tested, and the IC50 was 40 nM. `N#Cc1ccccc1-c1cc(-c2ccccn2)cn(Cc2ccccc2)c1=O` [Example 31, 3-(2-Cyanophenyl)-5-(2-pyridyl)-1-benzyl-1,2-dihydropyridin-2-one] gave an IC50 of 100 nM. Compound `N#Cc1ccccc1-c1cc(-c2ccccn2)c(=O)n(-c2ccccc2)c1` [Example 33, 3-(2-Pyridyl)-5-(2-cyanophenyl)-1-phenyl-1,2-dihydropyridin-2-one] has an IC50 of 700 nM. For `N#Cc1ccccc1-c1cc(-c2cccnc2)cn(-c2ccccc2)c1=O` [Example 34, 3-(2-Cyanophenyl)-5-(3-pyridyl)-1-phenyl-1,2-dihydropyridin-2-one], the IC50 was 3700 nM. For `N#Cc1ccccc1-c1cc(-c2ccncc2)cn(-c2ccccc2)c1=O` [Example 35, 3-(2-Cyanophenyl)-5-(4-pyridyl)-1-phenyl-1,2-dihydropyridin-2-one], the IC50 was 3100 nM. With `N#Cc1ccccc1-c1cc(-c2ccccc2C#N)c(=O)n(-c2ccccc2)c1` [Example 36, 3-(2-Cyanophenyl)-5-(2-cyanophenyl)-1-phenyl-1,2-dihydropyridin-2-one] the IC50 was 1100 nM. In the case of `O=c1c(-c2ccccc2)cc(-c2ccccc2)cn1-c1ccccn1` [Example 37, 3,5-Diphenyl-1-(2-pyridyl)-1,2-dihydropyridin-2-one], the IC50 is reported as 700 nM. Work on `N#Cc1ccccc1-c1cc(-c2ccccc2)c(=O)n(-c2ccccn2)c1` [Example 38, 3-Phenyl-5-(2-cyanophenyl)-1-(2-pyridyl)-1,2-dihydropyridin-2-one] yielded an IC50 of 6300 nM. `N#Cc1ccccc1-c1cc(-c2ccccc2)cn(-c2ccccn2)c1=O` [Example 39, 3-(2-Cyanophenyl)-5-phenyl-1-(2-pyridyl)-1,2-dihydropyridin-2-one] was tested, and the IC50 was 300 nM. In the case of `COc1ccccc1-c1cc(-c2ccccc2C#N)c(=O)n(-c2ccccc2)c1` [Example 42, 3-(2-Cyanophenyl)-5-(2-methoxyphenyl)-1-phenyl-1,2-dihydropyridin-2-one], the IC50 is reported as 200 nM. Work on `COc1ccc(-c2cc(-c3ccccc3C#N)c(=O)n(-c3ccccc3)c2)cc1OC` [Example 43, 3-(2-Cyanophenyl)-5-(3,4-dimethoxyphenyl)-1-phenyl-1,2-dihydropyridin-2-one] yielded an IC50 of 500 nM. `N#Cc1ccccc1-c1cc(-c2ccsc2)cn(-c2ccccc2)c1=O` [Example 44, 3-(2-Cyanophenyl)-5-(thiophen-3-yl)-1-phenyl-1,2-dihydropyridin-2-one] gave an IC50 of 300 nM. `N#Cc1ccccc1-c1cc(-c2ccccc2F)cn(-c2ccccc2)c1=O` [Example 45, 3-(2-Cyanophenyl)-5-(2-fluorophenyl)-1-phenyl-1,2-dihydropyridin-2-one] gave an IC50 of 200 nM. For `N#Cc1ccccc1-c1cc(-c2cccs2)cn(-c2ccccc2)c1=O` [Example 46, 3-(2-Cyanophenyl)-5-(thiophen-2-yl)-1-phenyl-1,2-dihydropyridin-2-one], the IC50 was 400 nM. For `N#Cc1ccccc1-c1cc(-c2ccoc2)cn(-c2ccccc2)c1=O` [Example 48], the IC50 was 40 nM. For `N#Cc1ccccc1-c1cc(-c2ccco2)cn(-c2ccccc2)c1=O` [Example 49], the IC50 was 200 nM. Work on `COc1ccccc1-c1cc(-c2ccccc2C#N)c(=O)n(-c2cccnc2)c1` [Example 52, 3-(2-Cyanophenyl)-5-(2-methoxyphenyl)-1-(3-pyridyl)-1,2-dihydropyridin-2-one] yielded an IC50 of 1100 nM. In the case of `COc1ccccc1-c1cc(-c2ccccn2)cn(-c2ccccc2)c1=O` [Example 55, 3-(2-Methoxyphenyl)-5-(2-pyridyl)-1-phenyl-1,2-dihydropyridin-2-one], the IC50 is reported as 800 nM. Compound `COc1ccccc1-c1cc(-c2ccccn2)cn(-c2ccc(F)cc2)c1=O` [Example 56, 3-(2-Methoxyphenyl)-5-(2-pyridyl)-1-(4-fluorophenyl)-1,2-dihydropyridin-2-one] has an IC50 of 3200 nM. In the case of `COC(=O)c1ccccc1-c1cc(-c2ccccn2)cn(-c2ccccc2)c1=O` [Example 58, 3-(2-Methoxycarbonylphenyl)-5-(2-pyridyl)-1-phenyl-1,2-dihydropyridin-2-one], the IC50 is reported as 100 nM. In the case of `Cc1ccccc1-c1cc(-c2ccccn2)cn(-c2ccccc2)c1=O` [Example 60, 3-(2-Tolyl)-5-(2-pyridyl)-1-phenyl-1,2-dihydropyridin-2-one], the IC50 is reported as 1700 nM.
